In patent publication US4172782A, “Recovery of catalyst” (Sumitomo Chemical Company, Limited, priority 1977, dated 1979):

Experiment: Solubility of tetra-n-butylammonium bromide in aqueous sodium hydroxide solutions
Type: physicochemical
Details: aqueous NaOH, 20° C.
Protocol: The organic quaternary ammonium salt is soluble both in water and in the oil layer. Its solubility in an aqueous alkali solution varies with the concentration of the alkali. The solubilities of tetra-n-butylammonium bromide, as an example of organic quaternary ammonium salts, in aqueous sodium hydroxide solutions were measured at 20° C. and the results obtained were as shown in Table 1.

## CCCC[N+](CCCC)(CCCC)CCCC.[Br-] [tetra-n-butylammonium bromide]
1% by wt.
  Solubility of tetra-n-butylammonium bromide: 27 % by wt.
2% by wt.
  Solubility of tetra-n-butylammonium bromide: 11 % by wt.
5% by wt.
  Solubility of tetra-n-butylammonium bromide: 2.4 % by wt.
10% by wt.
  Solubility of tetra-n-butylammonium bromide: 1.2 % by wt.
15% by wt.
  Solubility of tetra-n-butylammonium bromide: 0.07 % by wt.
